For one molecule, Kd results are on record in patent US20100113291A1 (CENTRE NATIONAL DE LA RECHERCHE SCIENTIFIQUE, priority 2006, published 2010).

The test deals with T1, MabA-C60V/S144L (Mycobacterium tuberculosis, UniProt P9WGT3, C60V/S144L).
T1 construct: made in house; host or cells: Escherichia coli
In kind it is binding. Conditions: read-out: KD for the cofactor.

Each structure is given as a SMILES string.

`NC(=O)C1=CN([C@@H]2O[C@H](COP(=O)(O)OP(=O)(O)OC[C@H]3O[C@@H](n4cnc5c(N)ncnc54)[C@H](OP(=O)(O)O)[C@@H]3O)[C@@H](O)[C@H]2O)C=CC1` [NADPH]: the dissociation constant Kd worked out at 11.2 µM.
